Experimental data from patent US20260262643A1, “HERBICIDAL BENZOXAZINES” (FMC CORPORATION, priority 2022, published 2026).

Key:
[1] = test system: barnyardgrass; experiment: Test C preemergence; assay type: in vivo, Echinochloa crusgalli
Procedure, shortened: (§1)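 Seeds sown in loam soil–sand blend received a directed preemergence soil spray of test chemical in non-phytotoxic solvent with surfactant; postemergence plants (2–10 cm, one- to two-leaf stage) were sprayed with the same formulation. Greenhouse-held 10 days, then visually rated for injury versus untreated controls, 0 (no effect) to 100 (complete control).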

[2] = test system: blackgrass; experiment: Test C preemergence; assay type: in vivo, Alopecurus myosuroides
Procedure, shortened: as §1

[3] = test system: corn; experiment: Test C preemergence; assay type: in vivo, Zea mays
Procedure, shortened: as §1

[4] = test system: green foxtail; experiment: Test C preemergence; assay type: in vivo, Setaria viridis
Procedure, shortened: as §1

[5] = test system: kochia; experiment: Test C preemergence; assay type: in vivo, Bassia scoparia
Procedure, shortened: as §1

[6] = test system: oat, wild; experiment: Test C preemergence; assay type: in vivo, Avena fatua
Procedure, shortened: as §1

[7] = test system: pigweed, palmer; experiment: Test C preemergence; assay type: in vivo, Amaranthus palmeri
Procedure, shortened: as §1

[8] = test system: ragweed; experiment: Test C preemergence; assay type: in vivo, Ambrosia artemisiifolia
Procedure, shortened: as §1

[9] = test system: ryegrass, Italian; experiment: Test C preemergence; assay type: in vivo, Lolium multiflorum
Procedure, shortened: as §1

[10] = test system: soybean; experiment: Test C preemergence; assay type: in vivo, Glycine max
Procedure, shortened: as §1

[11] = test system: wheat; experiment: Test C preemergence; assay type: in vivo, Triticum aestivum
Procedure, shortened: as §1

[12] = test system: barnyardgrass; experiment: Test C postemergence; assay type: in vivo, Echinochloa crusgalli; settings: 10 days, 0 to 100 scale (0 no effect, 100 complete control)
Procedure, shortened: as §1

[13] = test system: blackgrass; experiment: Test C postemergence; assay type: in vivo, Alopecurus myosuroides; settings: Alopecurus myosuroides, post-emergence, 240 h, 10 days, 0 to 100 scale (0 no effect, 100 complete control), read-out: Plant response rating, Blackgrass
Procedure, shortened: as §1

[14] = test system: corn; experiment: Test C postemergence; assay type: in vivo, Zea mays; settings: Zea mays, post-emergence, 240 h, 10 days, 0 to 100 scale (0 no effect, 100 complete control)
Procedure, shortened: as §1

[15] = test system: green foxtail; experiment: Test C postemergence; assay type: in vivo, Setaria viridis; settings: 10 days, 0 to 100 scale (0 no effect, 100 complete control)
Procedure, shortened: as §1

[16] = test system: kochia; experiment: Test C postemergence; assay type: in vivo, Bassia scoparia; settings: 10 days, 0 to 100 scale (0 no effect, 100 complete control)
Procedure, shortened: as §1

[17] = test system: oat, wild; experiment: Test C postemergence; assay type: in vivo, Avena fatua; settings: 10 days, 0 to 100 scale (0 no effect, 100 complete control)
Procedure, shortened: as §1

[18] = test system: pigweed, palmer; experiment: Test C postemergence; assay type: in vivo, Amaranthus palmeri; settings: 10 days, 0 to 100 scale (0 no effect, 100 complete control)
Procedure, shortened: as §1

[19] = test system: ragweed; experiment: Test C postemergence; assay type: in vivo, Ambrosia artemisiifolia; settings: 10 days, 0 to 100 scale (0 no effect, 100 complete control)
Procedure, shortened: as §1

[20] = test system: ryegrass, Italian; experiment: Test C postemergence; assay type: in vivo, Lolium multiflorum; settings: 10 days, 0 to 100 scale (0 no effect, 100 complete control)
Procedure, shortened: as §1

[21] = test system: soybean; experiment: Test C postemergence; assay type: in vivo, Glycine max; settings: 10 days, 0 to 100 scale (0 no effect, 100 complete control)
Procedure, shortened: as §1

[22] = test system: wheat; experiment: Test C postemergence; assay type: in vivo, Triticum aestivum; settings: 10 days, 0 to 100 scale (0 no effect, 100 complete control)
Procedure, shortened: as §1

[23] = test system: galium; experiment: Test C postemergence; assay type: in vivo, Galium aparine; settings: 10 days, 0 to 100 scale (0 no effect, 100 complete control)
Procedure, shortened: as §1

[24] = test system: horseweed; experiment: Test C postemergence; assay type: in vivo, Erigeron canadensis; settings: 10 days, 0 to 100 scale (0 no effect, 100 complete control)
Procedure, shortened: as §1

[25] = test system: barnyardgrass; experiment: Test D flooded paddy test; assay type: in vivo, Echinochloa crus-galli; settings: 250 g ai/ha, applied to paddy water, visual rating after 13 to 14 days, scale 0 to 100 (0 no effect, 100 complete control)
Procedure, shortened: (§2)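 Plants at the 2-leaf stage were grown in pots flooded to 3 cm, and compound was applied directly into the paddy water, with depth kept throughout. After 13–14 days in a greenhouse, injury was rated visually against untreated controls on a 0–100 scale (100 = complete control); a dash means not tested.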

[26] = test system: ducksalad; experiment: Test D flooded paddy test; assay type: in vivo, Heteranthera limosa; settings: 250 g ai/ha, applied to paddy water, visual rating after 13 to 14 days, scale 0 to 100 (0 no effect, 100 complete control)
Procedure, shortened: as §2

[27] = test system: rice; experiment: Test D flooded paddy test; assay type: in vivo, Oryza sativa; settings: 250 g ai/ha, applied to paddy water, visual rating after 13 to 14 days, scale 0 to 100 (0 no effect, 100 complete control)
Procedure, shortened: as §2

[28] = test system: sedge, umbrella; experiment: Test D flooded paddy test; assay type: in vivo, Cyperus difformis; settings: 250 g ai/ha, applied to paddy water, visual rating after 13 to 14 days, scale 0 to 100 (0 no effect, 100 complete control)
Procedure, shortened: as §2

[29] = 500 g ai/ha, preemergence, 0 to 100 scale (0 no effect, 100 complete control)
[30] = Preemergence, 125 g ai/ha, 0 to 100 scale, 0 no effect, 100 complete control

CCOC[C@H]1CN(C(=O)c2cc(-n3cnc(C(C)C)n3)ccc2C)c2cccc(Cl)c2O1 [Compound 340, [(2R)-8-chloro-2-(ethoxymethyl)-2,3-dihydro-1,4-benzoxazin-4-yl]-[5-(3-isopropyl-1,2,4-triazol-1-yl)-2-methyl-phenyl]methanone]
Barnyardgrass plant response rating [1, 29]: 100 | Plant response rating, Barnyardgrass [1, 30]: 90 | Blackgrass plant response rating [2, 29]: 90 | Plant response rating, Blackgrass [2, 30]: 50 | Corn plant response rating [3, 29]: 40 | Plant response rating, Corn [3, 30]: 20 | Foxtail, Green plant response rating [4, 29]: 100 | Plant response rating, Foxtail, Green [4, 30]: 100 | Kochia plant response rating [5, 29]: 100 | Plant response rating, Kochia [5, 30]: 90 | Oat, Wild plant response rating [6, 29]: 80 | Plant response rating, Oat, Wild [6, 30]: 70 | Pigweed, Palmer plant response rating [7, 29]: 100 | Plant response rating, Pigweed, Palmer [7, 30]: 100 | Ragweed plant response rating [8, 29]: 100 | Plant response rating, Ragweed [8, 30]: 80 | Ryegrass, Italian plant response rating [9, 29]: 100 | Plant response rating, Ryegrass, Italian [9, 30]: 90 | Soybean plant response rating [10, 29]: 100 | Plant response rating, Soybean [10, 30]: 30 | Wheat plant response rating [11, 29]: 80 | Plant response rating, Wheat [11, 30]: 50 | Plant response rating, Barnyardgrass ([12]; 500 g ai/ha, postemergence): 60 | Plant response rating, Barnyardgrass ([12]; Postemergence, 125 g ai/ha): 50 | pest or weed control at 500 g/ha ([13]; 500 g ai/ha, postemergence): 60% | pest or weed control at 125 g/ha ([13]; Postemergence, 125 g ai/ha): 20% | Corn plant response rating (crop injury, 0 = no effect, 100 = complete kill) at 500 g/ha ([14]; 500 g ai/ha, postemergence): 60% | Corn plant response rating (crop injury, 0 = no effect, 100 = complete kill) at 125 g/ha ([14]; Postemergence, 125 g ai/ha): 60% | Plant response rating, Foxtail, Green ([15]; 500 g ai/ha, postemergence): 70 | Plant response rating, Foxtail, Green ([15]; Postemergence, 125 g ai/ha): 30 | Plant response rating, Kochia ([16]; 500 g ai/ha, postemergence): 90 | Plant response rating, Kochia ([16]; Postemergence, 125 g ai/ha): 90 | Plant response rating, Oat, Wild ([17]; 500 g ai/ha, postemergence): 20 | Plant response rating, Oat, Wild ([17]; Postemergence, 125 g ai/ha): 10 | Plant response rating, Pigweed, Palmer ([18]; 500 g ai/ha, postemergence): 100 | Plant response rating, Pigweed, Palmer ([18]; Postemergence, 125 g ai/ha): 80 | Plant response rating, Ragweed ([19]; 500 g ai/ha, postemergence): 80 | Plant response rating, Ragweed ([19]; Postemergence, 125 g ai/ha): 70 | Plant response rating, Ryegrass, Italian ([20]; 500 g ai/ha, postemergence): 80 | Plant response rating, Ryegrass, Italian ([20]; Postemergence, 125 g ai/ha): 60 | Plant response rating, Soybean ([21]; 500 g ai/ha, postemergence): 100 | Plant response rating, Soybean ([21]; Postemergence, 125 g ai/ha): 100 | Plant response rating, Wheat ([22]; 500 g ai/ha, postemergence): 30 | Plant response rating, Wheat ([22]; Postemergence, 125 g ai/ha): 10 | Plant response rating, Galium ([23]; 500 g ai/ha, postemergence): 100 | Plant response rating, Galium ([23]; Postemergence, 125 g ai/ha): 90 | Plant response rating, Horseweed ([24]; 500 g ai/ha, postemergence): 60 | Plant response rating, Horseweed ([24]; Postemergence, 125 g ai/ha): 30 | Plant response rating, Barnyardgrass (Flood) [25]: 0 | Plant response rating, Ducksalad (Flood) [26]: 75 | Plant response rating, Rice (Flood) [27]: 0 | Plant response rating, Sedge, Umbrella (Flood) [28]: 60
